# Assay results from ChEMBL document CHEMBL5325501, “Discovery of BWA-522, a First-in-Class and Orally Bioavailable PROTAC Degrader of the Androgen Receptor Targeting N-Terminal Domain for the Treatment of Prostate Cancer” (J Med Chem, 2023).
# Active and inactive are the calls of the source. The rule behind the calls is not given here.
# Tests used:
# [1] = Metabolic stability in mouse liver microsomes assessed as parent compound remaining at 2 uM preincubated for 10 mins followed by compound addition and measured after 60 mins by LC-MS/MS analysis; type: ADME, Microsome; conditions: read-out: Stability
# [2] = Half-life in ICR mouse at 10 mg/kg, po measured by LC-MS/MS analysis; type: ADME, organism-based; conditions: in vivo
# [3] = test system: LNCaP; assay: Downregulation of TMPRSS2 protein level in human LNCaP cells incubated for 48 hrs by Western blot analysis; type: functional, cell-based; conditions: dose 1-10 µM
# [4] = Clearance in ICR mouse at 2 mg/kg, iv measured by LC-MS/MS analysis; type: ADME, organism-based; conditions: in vivo
# [5] = Tmax in ICR mouse at 2 mg/kg, iv measured by LC-MS/MS analysis; type: ADME, organism-based; conditions: in vivo
# [6] = test system: LNCaP; assay: Antitumor activity against human LNCaP cells xenografted in NOD SCID mouse assessed as tumor growth inhibition at 60 mg/kg, po administered daily for 4 weeks relative to control; type: functional; conditions: 672 h, read-out: TGI
# [7] = test system: RWPE-1; assay: Cytotoxicity against human RWPE-1 cells assessed as reduction in cell viability incubated for 6 days by CCK8 assay; type: toxicity, cell-based; conditions: rwpe-1, 144 h, time 6 day
# [8] = Cmax in beagle dog at 1 mg/kg, iv measured by LC-MS/MS analysis; type: ADME, organism-based, Canis lupus familiaris; parameters: dose 1 mg/kg, route iv; conditions: in vivo
# [9] = Toxicity in ICR mouse assessed as kidney damage at 20 to 60 mg/kg, po administered daily for 14 days; type: organism-based; conditions: in vivo, 336 h, dose 20-60 mg/kg, time 14 day
# [10] = Metabolic stability in mouse liver microsomes assessed as half-life at 2 uM preincubated for 10 mins in the presence of NADPH followed by compound addition and measured after 60 mins by LC-MS/MS analysis; type: ADME, Microsome
# [11] = Stability in mouse plasma assessed as parent compound remaining measured after 120 mins by LC-MS/MS analysis; type: ADME, cell-free; conditions: read-out: Stability
# [12] = Downregulation of PSA protein level in human LNCaP cells at 10 uM incubated for 48 hrs by Western blot analysis relative to control; type: functional
# [13] = Tmax in ICR mouse at 10 mg/kg, po measured by LC-MS/MS analysis; type: ADME, organism-based; conditions: in vivo
# [14] = Half-life in ICR mouse at 2 mg/kg, iv measured by LC-MS/MS analysis; type: ADME, organism-based; conditions: in vivo
# [15] = test system: VCaP; assay: Downregulation of FKBP51 protein level in human VCaP cells incubated for 48 hrs by Western blot analysis; type: functional, cell-based; conditions: dose 1-10 µM
# [16] = Toxicity in ICR mouse assessed as heart damage at 20 to 60 mg/kg, po administered daily for 14 days; type: organism-based; conditions: in vivo, 336 h, dose 20-60 mg/kg, time 14 day
# [17] = Stability in mouse plasma assessed as parent compound remaining measured after 45 mins by LC-MS/MS analysis; type: ADME, cell-free; conditions: read-out: Stability
# [18] = AUC(0 to t) in ICR mouse at 2 mg/kg, iv measured by LC-MS/MS analysis; type: ADME, organism-based; parameters: dose 2 mg/kg, route iv; conditions: in vivo
# [19] = test system: CWR22R; assay: Antiproliferative activity against enzalutamide-resistant human 22Rv1 cells assessed as reduction in cell viability incubated for 6 days by CCK-8 assay; type: functional, cell-based; conditions: 22Rv1, 144 h
# [20] = AUC(0 to t) in beagle dog at 5 mg/kg, po measured by LC-MS/MS analysis; type: ADME, organism-based, Canis lupus familiaris; parameters: dose 5 mg/kg, route po; conditions: in vivo
# [21] = Downregulation of TMPRSS2 protein level in human LNCaP cells at 10 uM incubated for 48 hrs by Western blot analysis relative to control; type: functional
# [22] = Downregulation of FKBP51 protein level in human LNCaP cells at 10 uM incubated for 48 hrs by Western blot analysis relative to control; type: functional
# [23] = test system: VCaP; assay: Induction of apoptosis in human VCaP cells assessed as PARP-1 cleavage at 5 to 10 uM incubated for 48 hrs by Western blot analysis; type: functional, cell-based; conditions: dose 5-10 µM
# [24] = Downregulation of FKBP51 protein level in human VCaP cells at 10 uM incubated for 48 hrs by Western blot analysis relative to control; type: functional
# [25] = Stability in mouse plasma assessed as parent compound remaining measured after 15 mins by LC-MS/MS analysis; type: ADME, cell-free; conditions: read-out: Stability
# [26] = Oral bioavailability in beagle dog at 5 mg/kg measured by LC-MS/MS analysis; type: ADME, organism-based, Canis lupus familiaris; conditions: in vivo
# [27] = Stability in human plasma assessed as parent compound remaining measured after 30 mins by LC-MS/MS analysis; type: ADME, cell-free; conditions: read-out: Stability
# [28] = test system: LNCaP; assay: Antiproliferative activity against AR-dependent human LNCaP cells assessed as reduction in cell viability at 3 to 10 uM incubated for 6 days by CCK-8 assay; type: functional, cell-based; conditions: dose 3-10 µM, time 6.0 day
# [29] = test system: CWR22R; assay: Inhibition of colony formation in human 22Rv1 cells incubated for 2 weeks by crystal violet staining based analysis; type: functional, cell-based; conditions: dose 1-10 µM
# [30] = test system: PC-3; assay: Antiproliferative activity against AR-independent human PC-3 cells assessed as reduction in cell viability at 10 uM incubated for 6 days by CCK-8 assay; type: functional, cell-based; conditions: time 6.0 day
# [31] = test system: LNCaP; assay: Antitumor activity against human LNCaP cells xenografted in NOD SCID mouse assessed as inhibition of tumor volume at 20 to 60 mg/kg, po administered daily for 4 weeks; type: functional, organism-based; conditions: dose 20-60 mg/kg
# [32] = Cmax in beagle dog at 5 mg/kg, po measured by LC-MS/MS analysis; type: ADME, organism-based, Canis lupus familiaris; parameters: dose 5 mg/kg, route po; conditions: in vivo
# [33] = test system: LNCaP; assay: Downregulation of PSA protein level in human LNCaP cells incubated for 48 hrs by Western blot analysis; type: functional, cell-based; conditions: dose 1-10 µM
# [34] = Toxicity in ICR mouse assessed as body weight loss at 20 to 60 mg/kg, po administered daily for 14 days; type: organism-based; conditions: in vivo, 336 h, dose 20-60 mg/kg, time 14 day
# [35] = Metabolic stability in human liver microsomes assessed as half-life at 2 uM preincubated for 10 mins in the presence of NADPH followed by compound addition and measured after 60 mins by LC-MS/MS analysis; type: ADME, Microsome
# [36] = Stability in mouse plasma assessed as parent compound remaining measured after 30 mins by LC-MS/MS analysis; type: ADME, cell-free; conditions: read-out: Stability
# [37] = Metabolic stability in mouse liver microsomes assessed as intrinsic clearance at 2 uM preincubated for 10 mins in the presence of NADPH followed by compound addition and measured per mg protein after 60 mins by LC-MS/MS analysis; type: ADME, Microsome; conditions: read-out: CLH
# [38] = Stability in human plasma assessed as parent compound remaining measured after 120 mins by LC-MS/MS analysis; type: ADME, cell-free; conditions: read-out: Stability
# [39] = Toxicity in ICR mouse assessed as liver damage at 20 to 60 mg/kg, po administered daily for 14 days; type: organism-based; conditions: in vivo, 336 h, dose 20-60 mg/kg, time 14 day
# [40] = Clearance in beagle dog at 1 mg/kg, iv measured by LC-MS/MS analysis; type: ADME, organism-based, Canis lupus familiaris; conditions: in vivo
# [41] = Metabolic stability in human liver microsomes assessed as parent compound remaining at 2 uM preincubated for 10 mins in the presence of NADPH followed by compound addition and measured after 60 mins by LC-MS/MS analysis; type: ADME, Microsome; conditions: read-out: Stability
# [42] = Tmax in beagle dog at 5 mg/kg, po measured by LC-MS/MS analysis; type: ADME, organism-based, Canis lupus familiaris; conditions: in vivo
# [43] = test system: LNCaP; assay: Induction of apoptosis in human LNCaP cells assessed as PARP-1 cleavage at 5 to 10 uM incubated for 48 hrs by Western blot analysis; type: functional, cell-based; conditions: dose 5-10 µM
# [44] = test system: LNCaP; assay: Downregulation of FKBP51 protein level in human LNCaP cells incubated for 48 hrs by Western blot analysis; type: functional, cell-based; conditions: dose 1-10 µM
# [45] = Toxicity in ICR mouse assessed as spleen damage at 20 to 60 mg/kg, po administered daily for 14 days; type: organism-based; conditions: in vivo, 336 h, dose 20-60 mg/kg, time 14 day
compound,measurement,setting,value
CC(C)(c1ccc(OCC2CCN(CC3CCN(c4ccc5c(c4)C(=O)N(C4CCC(=O)NC4=O)C5=O)CC3)CC2)cc1)c1ccc(OC[C@H](O)CCl)cc1 (stereo not given in full),"remaining at 1 h, 2 µM",[1],99.5%
same,half-life,[2],7.9 h
same,Activity,[3],Dose-Dependent Effect
same,clearance,[4],9.9 mL/min/kg
same,Tmax,[5],6 min
same,inhibition in vivo at 60 mg/kg,[6],76%
same,Activity,[7],Non-Toxic
same,Cmax,[8],150 ng/mL
same,Activity,[9],Non-Toxic
same,half-life at 2 µM,[10],3.12 h
same,remaining at 2 h,[11],91.2%
same,Activity,[12],~15%
same,Tmax,[13],4.7 h
same,half-life,[14],8.2 h
same,Activity,[15],Dose-Dependent Effect
same,Activity,[16],Non-Toxic
same,remaining at 0.75 h,[17],102%
same,AUC(0-t),[18],3020 ng·h/mL
same,IC50,[19],4.08 µM
same,AUCt,[20],1411 ng·h/mL
same,Activity,[21],~45%
same,Activity,[22],~25%
same,Activity,[23],Active
same,Activity,[24],~25%
same,remaining at 0.25 h,[25],88%
same,F,[26],69.3%
same,remaining at 0.5 h,[27],92.1%
same,Activity,[28],Active
same,inhibition,[29],Dose-Dependent Effect
same,Activity,[30],inactive
same,Activity,[31],Active
same,Cmax,[32],97.3 ng/mL
same,Activity,[33],Dose-Dependent Effect
same,Activity,[34],Non-Toxic
same,half-life at 2 µM,[35],3.12 h
same,remaining at 0.5 h,[36],90.3%
same,microsomal CLint at 2 µM,[37],7.4 µL/min/mg
same,remaining at 2 h,[38],87.3%
same,Activity,[39],Non-Toxic
same,clearance,[40],15.5 mL/min/kg
same,"remaining at 1 h, 2 µM",[41],80.9%
same,Tmax,[42],2.8 h
same,Activity,[43],Active
same,Activity,[44],Dose-Dependent Effect
same,Activity,[45],Non-Toxic
